Common to all, as to assay: relative viability (nuclei count vs DMSO), 5 days (fraction); higher = more cells survive
Compound in experiment [1]: C1=CC2=NC=CN=C2C=C1/C=C/3\C(=O)NC(=O)S3 + N=C(N)NC(=N)NCCc1ccccc1 [Phenformin] (partner 250 µM)
In a few lines: (§1)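 Relative viability is defined as nuclei in treated wells over nuclei in vehicle wells. Duplicate plates were run and medians reported. Lung cancer cell lines in 1536-well plates were dosed by pin tool one day after seeding, with one drug or with a fixed anchor-drug dose plus five library-drug doses (not always all listed) in √10 steps, and nuclei were counted after 5 days.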

Compound in experiment [2]: CCN1CCN(c2ccc(Nc3cc(N(C)C(=O)Nc4c(Cl)c(OC)cc(OC)c4Cl)ncn3)cc2)CC1 [BGJ398] + C[C@]1(O)C[C@@H](c2nc(-c3ccc4ccc(-c5ccccc5)nc4c3)c3c(N)nccn32)C1 [Linsitinib] (partner 1 µM)
In a few lines: as §1

Compound in experiment [3]: C1=CC2=NC=CN=C2C=C1/C=C/3\C(=O)NC(=O)S3 + CCNC(=O)c1noc(-c2cc(C(C)C)c(O)cc2O)c1-c1ccc(CN2CCOCC2)cc1 [Luminespib] (partner 0.01 µM)
In a few lines:
as §1

Compound in experiment [4]: C1=CC2=NC=CN=C2C=C1/C=C/3\C(=O)NC(=O)S3 + Nc1ncn([C@H]2C[C@H](O)[C@@H](CO)O2)c(=O)n1 [Decitabine] (partner 2 µM)
In a few lines: as §1

EPLC-272H: the relative viability in experiment [1] (first compound 0.02 µM) is 0.259; in experiment [1] (first compound 0.06325 µM), 0.302; in experiment [1] (first compound 0.2 µM), 0.371; in experiment [1] (first compound 0.6325 µM), 0.26; in experiment [1] (first compound 2 µM), 0.297; in experiment [2] (first compound 0.01 µM) it was 1.16. Besides, the relative viability in experiment [2] (first compound 0.03162 µM) came to 1.16; in experiment [2] (first compound 0.1 µM), 1.2; in experiment [2] (first compound 0.3162 µM), 1; in experiment [2] (first compound 1 µM), 1.22; in experiment [3] (first compound 0.02 µM), 0.447; in experiment [3] (first compound 0.06325 µM), 0.214. For the same cell line, the relative viability stood at 0.328 in experiment [3] (first compound 0.2 µM); 0.267 in experiment [3] (first compound 0.6325 µM); 0.198 in experiment [3] (first compound 2 µM); 0.351 in experiment [4] (first compound 0.02 µM); 0.344 in experiment [4] (first compound 0.06325 µM); 0.4 in experiment [4] (first compound 0.2 µM). Moreover, the results for the relative viability in experiment [4] (first compound 0.6325 µM) and in experiment [4] (first compound 2 µM) were 0.356 and 0.321, respectively.
As to NCI-H1915, the relative viability turned out to be 0.354 in experiment [1] (first compound 0.02 µM); 0.415 in experiment [1] (first compound 0.06325 µM); 0.378 in experiment [1] (first compound 0.2 µM); 0.371 in experiment [1] (first compound 0.6325 µM); 0.375 in experiment [1] (first compound 2 µM); 1.05 in experiment [2] (first compound 0.01 µM). In addition, the relative viability in experiment [2] (first compound 0.03162 µM) stood at 1.04; in experiment [2] (first compound 0.1 µM) it was 1.12; in experiment [2] (first compound 0.3162 µM) it was 1.19; in experiment [2] (first compound 1 µM), 1.13; in experiment [3] (first compound 0.02 µM), 0.771; in experiment [3] (first compound 0.06325 µM), 0.747. Besides, the relative viability turned out to be 0.815 in experiment [3] (first compound 0.2 µM); 0.618 in experiment [3] (first compound 0.6325 µM); 0.754 in experiment [3] (first compound 2 µM); 0.238 in experiment [4] (first compound 0.02 µM); 0.281 in experiment [4] (first compound 0.06325 µM); 0.28 in experiment [4] (first compound 0.2 µM). The relative viability in experiment [4] (first compound 0.6325 µM) came out at 0.252; in experiment [4] (first compound 2 µM) it was 0.281.
In the case of NCI-H2405, the relative viability was 0.44 in experiment [1] (first compound 0.02 µM); 0.406 in experiment [1] (first compound 0.06325 µM); 0.397 in experiment [1] (first compound 0.2 µM); 0.383 in experiment [1] (first compound 0.6325 µM); 0.111 in experiment [1] (first compound 2 µM); 0.863 in experiment [2] (first compound 0.01 µM). The relative viability in experiment [2] (first compound 0.03162 µM) came out at 0.892; in experiment [2] (first compound 0.1 µM), 0.982; in experiment [2] (first compound 0.3162 µM), 1.07; in experiment [2] (first compound 1 µM), 1.01; in experiment [3] (first compound 0.02 µM), 0.783; in experiment [3] (first compound 0.06325 µM), 0.598. Also, the relative viability in experiment [3] (first compound 0.2 µM) stood at 0.6; in experiment [3] (first compound 0.6325 µM) it was 0.699; in experiment [3] (first compound 2 µM), 0.424; in experiment [4] (first compound 0.02 µM) it was 0.686; in experiment [4] (first compound 0.06325 µM), 0.818; in experiment [4] (first compound 0.2 µM), 0.751. For the same cell line, the relative viability came to 0.793 in experiment [4] (first compound 0.6325 µM) and 0.586 in experiment [4] (first compound 2 µM).
On to NCI-H322M, for which the relative viability amounted to 0.744 in experiment [1] (first compound 0.02 µM); 0.813 in experiment [1] (first compound 0.06325 µM); 0.796 in experiment [1] (first compound 0.2 µM); 0.776 in experiment [1] (first compound 0.6325 µM); 0.669 in experiment [1] (first compound 2 µM); 0.863 in experiment [2] (first compound 0.01 µM). Moreover, the relative viability in experiment [2] (first compound 0.03162 µM) amounted to 0.788; in experiment [2] (first compound 0.1 µM), 0.978; in experiment [2] (first compound 0.3162 µM), 0.935; in experiment [2] (first compound 1 µM) it was 0.999; in experiment [3] (first compound 0.02 µM), 0.95; in experiment [3] (first compound 0.06325 µM), 0.76. Besides, the relative viability in experiment [3] (first compound 0.2 µM) amounted to 0.707; in experiment [3] (first compound 0.6325 µM) it was 0.8; in experiment [3] (first compound 2 µM), 0.522; in experiment [4] (first compound 0.02 µM) it was 0.693; in experiment [4] (first compound 0.06325 µM), 0.776; in experiment [4] (first compound 0.2 µM), 0.798. The relative viability in experiment [4] (first compound 0.6325 µM) is 0.665; in experiment [4] (first compound 2 µM), 0.692.
In the case of NCI-H1395, the relative viability came out at 0.449 in experiment [1] (first compound 0.02 µM); 0.449 in experiment [1] (first compound 0.06325 µM); 0.47 in experiment [1] (first compound 0.2 µM); 0.416 in experiment [1] (first compound 0.6325 µM); 0.483 in experiment [1] (first compound 2 µM); 1.15 in experiment [2] (first compound 0.01 µM). For the same cell line, the relative viability in experiment [2] (first compound 0.03162 µM) turned out to be 1.24; in experiment [2] (first compound 0.1 µM) it was 0.977; in experiment [2] (first compound 0.3162 µM), 0.939; in experiment [2] (first compound 1 µM), 0.797; in experiment [3] (first compound 0.02 µM) it was 0.807; in experiment [3] (first compound 0.06325 µM) it was 0.693. In addition, the relative viability worked out at 0.719 in experiment [3] (first compound 0.2 µM); 0.607 in experiment [3] (first compound 0.6325 µM); 0.794 in experiment [3] (first compound 2 µM); 0.637 in experiment [4] (first compound 0.02 µM); 0.693 in experiment [4] (first compound 0.06325 µM); 0.74 in experiment [4] (first compound 0.2 µM). The relative viability in experiment [4] (first compound 0.6325 µM) worked out at 0.703; in experiment [4] (first compound 2 µM), 0.651.
Regarding NCI-H358, the relative viability in experiment [1] (first compound 0.02 µM) was 0.41; in experiment [1] (first compound 0.06325 µM) it was 0.382; in experiment [1] (first compound 0.2 µM), 0.356; in experiment [1] (first compound 0.6325 µM) it was 0.283; in experiment [1] (first compound 2 µM) it was 0.149; in experiment [2] (first compound 0.01 µM) it was 0.631. The relative viability worked out at 0.714 in experiment [2] (first compound 0.03162 µM); 0.724 in experiment [2] (first compound 0.1 µM); 0.707 in experiment [2] (first compound 0.3162 µM); 0.848 in experiment [2] (first compound 1 µM); 0.265 in experiment [3] (first compound 0.02 µM); 0.35 in experiment [3] (first compound 0.06325 µM). In addition, the relative viability in experiment [3] (first compound 0.2 µM) was 0.347; in experiment [3] (first compound 0.6325 µM), 0.224; in experiment [3] (first compound 2 µM), 0.182; in experiment [4] (first compound 0.02 µM) it was 0.227; in experiment [4] (first compound 0.06325 µM), 0.22; in experiment [4] (first compound 0.2 µM), 0.221. The relative viability in experiment [4] (first compound 0.6325 µM) turned out to be 0.268; in experiment [4] (first compound 2 µM) it was 0.182.
On to NCI-H838, for which the relative viability was determined as 0.664 in experiment [1] (first compound 0.02 µM); 0.737 in experiment [1] (first compound 0.06325 µM); 0.596 in experiment [1] (first compound 0.2 µM); 0.461 in experiment [1] (first compound 0.6325 µM); 0.36 in experiment [1] (first compound 2 µM); 0.94 in experiment [2] (first compound 0.01 µM). Moreover, the relative viability was found to be 0.979 in experiment [2] (first compound 0.03162 µM); 0.927 in experiment [2] (first compound 0.1 µM); 0.919 in experiment [2] (first compound 0.3162 µM); 0.716 in experiment [2] (first compound 1 µM); 0.295 in experiment [3] (first compound 0.02 µM); 0.446 in experiment [3] (first compound 0.06325 µM). Moreover, the relative viability in experiment [3] (first compound 0.2 µM) stood at 0.267; in experiment [3] (first compound 0.6325 µM), 0.26; in experiment [3] (first compound 2 µM) it was 0.324; in experiment [4] (first compound 0.02 µM) it was 0.429; in experiment [4] (first compound 0.06325 µM), 0.46; in experiment [4] (first compound 0.2 µM), 0.415. For the same cell line, the values for the relative viability in experiment [4] (first compound 0.6325 µM) and in experiment [4] (first compound 2 µM) were 0.481 and 0.39, respectively.

Source of the values: the supplement of paper PMC10307832.
